Source: patent US20240158446A1, “CYCLIC COMPOUND HAVING SELECTIVE INHIBITORY ACTION ON KRAS OVER HRAS AND NRAS” (CHUGAI SEIYAKU KABUSHIKI KAISHA, priority 2021, published 2024)
Like-named read-outs stand apart in the source and are kept apart here. *1 amine or outer side, *2 acyl side, *3 side chain or, on linkers, in order; H or OH if unused. Where a SMILES comes first, the peptide text is derived from it. Bridges are numbered along the chain shown (N, C = ends). [ ]: non-standard residue; d: D form. The star is where a group is joined. hPhe(3,5-F2-4-CF3) = N[C@@H](CCc1cc(F)c(C(F)(F)F)c(F)c1)C(=O)O; hPhe(3-Cl-4-CF3) = N[C@@H](CCc1ccc(C(F)(F)F)c(Cl)c1)C(=O)O; NPrPhe(4-CF3) = CCCN[C@@H](Cc1ccc(C(F)(F)F)cc1)C(=O)O; NEtPhe(4-Me) = CCN[C@@H](Cc1ccc(C)cc1)C(=O)O; NMeAbu(4,4,4-F3) = CN[C@@H](CC(F)(F)F)C(=O)O; X13 = O=C([C@@H](N[*:1])C1CC(F)(F)C1)[*:2]; Abu(4,4,4-F3) = N[C@@H](CC(F)(F)F)C(=O)O; NMeGly(cPent) = CN[C@H](C(=O)O)C1CCCC1; NMeD = CN[C@@H](CC(=O)O)C(=O)O; NMeL = CN[C@@H](CC(C)C)C(=O)O; Morpholide = C1CN(*)CCO1; NMeA = CN[C@@H](C)C(=O)O; Ac5c = NC1(C(=O)O)CCCC1; Aze = O=C(O)[C@@H]1CCN1; NEtG = CCNCC(=O)O; Sar = CNCC(=O)O

Key:
[1] = target: GDP-bound NRAS wild-type protein (Homo sapiens, UniProt P01111); experiment: Binding to NRAS by surface plasmon resonance (SPR), Single Cycle Kinetics; conditions: for NRAS/KRAS (ratio of KD value for NRAS to KD value for KRAS) / NRAS/KRAS (ratio of KD value with respect to NRAS to KD value with respect to KRAS): SPR, GDP-bound NRAS wild-type protein vs GDP-bound KRAS wild-type protein; for NRAS/KRAS (ratio of KD value with respect to GDP-bound NRAS wild-type protein to KD value with respect to KRAS): SPR KD ratio NRAS/KRAS, class symbols
Chain of GDP-bound NRAS wild-type protein (P01111 whole entry): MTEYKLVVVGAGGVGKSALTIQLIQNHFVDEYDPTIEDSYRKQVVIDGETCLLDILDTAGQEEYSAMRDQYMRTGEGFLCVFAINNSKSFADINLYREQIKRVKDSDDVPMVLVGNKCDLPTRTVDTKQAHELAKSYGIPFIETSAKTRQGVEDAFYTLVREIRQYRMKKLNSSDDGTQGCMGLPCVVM

[2] = target: GDP-bound KRAS wild-type protein (Homo sapiens, UniProt P01116); experiment: Binding to KRAS by surface plasmon resonance (SPR), Single Cycle Kinetics; conditions: GDP-bound KRAS wild-type protein, read-out: KRAS KD
Chain of GDP-bound KRAS wild-type protein (P01116 whole entry): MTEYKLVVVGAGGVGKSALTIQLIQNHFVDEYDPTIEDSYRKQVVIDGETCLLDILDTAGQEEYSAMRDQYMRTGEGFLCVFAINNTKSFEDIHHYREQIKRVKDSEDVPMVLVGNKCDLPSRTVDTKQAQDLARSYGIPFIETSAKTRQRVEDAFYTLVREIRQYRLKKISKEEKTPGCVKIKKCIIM

[3] = target: GDP-bound HRAS wild-type protein (Homo sapiens, UniProt P01112); experiment: Binding to HRAS by surface plasmon resonance (SPR), Single Cycle Kinetics; conditions: for HRAS/KRAS (ratio of KD value for HRAS to KD value for KRAS) / HRAS/KRAS (ratio of KD value with respect to HRAS to KD value with respect to KRAS): SPR, GDP-bound HRAS wild-type protein vs GDP-bound KRAS wild-type protein; for HRAS/KRAS (ratio of KD value with respect to GDP-bound HRAS wild-type protein to KD value with respect to KRAS): SPR KD ratio HRAS/KRAS, class symbols
Chain of GDP-bound HRAS wild-type protein (P01112 whole entry): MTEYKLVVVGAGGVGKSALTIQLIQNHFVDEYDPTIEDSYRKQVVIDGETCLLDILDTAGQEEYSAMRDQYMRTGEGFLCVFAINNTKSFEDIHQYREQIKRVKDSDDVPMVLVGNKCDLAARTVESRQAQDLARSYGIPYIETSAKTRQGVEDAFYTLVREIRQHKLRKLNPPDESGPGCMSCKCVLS

[4] = SPR Single Cycle Kinetics, 1:1 binding model

Kd [2, 4] [nM] | Structure (SMILES) | NRAS/KRAS (ratio of KD value for NRAS to KD value for KRAS) [1] | HRAS/KRAS (ratio of KD value for HRAS to KD value for KRAS) [3] | further results
0.37 | CC[C@H](C)[C@@H]1NC(=O)[C@H](CC(F)(F)F)N(C)C(=O)C[C@@H](C(=O)N2CCOCC2)N(C)C(=O)[C@H](C2CCCC2)N(C)C(=O)C2(CCCC2)NC(=O)[C@@H]2CCCN2C(=O)[C@H](CCc2ccc(C(F)(F)F)c(Cl)c2)NC(=O)CN(C)C(=O)[C@H](Cc2ccc(C)cc2)N(CC)C(=O)CN(C)C(=O)CN(C)C1=O [PP0032] ([NMeAbu(4,4,4-F3)]I[Sar][Sar][NEtPhe(4-Me)][Sar][hPhe(3-Cl-4-CF3)]P[Ac5c][NMeGly(cPent)][NMeD]-Morpholide; lactam N-11) | C (A compound having a KD ratio of 0.1 or more and less than 3 is denoted as C) | C (A compound having a KD ratio of 0.1 or more and less than 3 is denoted as C) | –
0.76 | CCCN1C(=O)[C@@H]2CCN2C(=O)[C@H](C)N(C)C(=O)[C@H](CC(F)(F)F)NC(=O)[C@H](CC(C)C)N(C)C(=O)C[C@@H](C(=O)N2CCOCC2)N(C)C(=O)[C@H](C2CCCC2)N(C)C(=O)C2(CCCC2)NC(=O)[C@@H]2CCCN2C(=O)[C@H](CCc2ccc(C(F)(F)F)c(Cl)c2)NC(=O)CN(C)C(=O)[C@@H]1Cc1ccc(C(F)(F)F)cc1 [PP0270] ([NMeL][Abu(4,4,4-F3)][NMeA][Aze][NPrPhe(4-CF3)][Sar][hPhe(3-Cl-4-CF3)]P[Ac5c][NMeGly(cPent)][NMeD]-Morpholide; lactam N-11) | C (A compound having a KD ratio of 0.1 or more and less than 3 is denoted as C) | B (a compound having 3 or more and less than 10 is denoted as B) | –
0.14 | CCO[C@@H]1C[C@H]2C(=O)NC3(CCC3)C(=O)N(C)[C@@H](C3CCCC3)C(=O)N(C)[C@H](C(=O)N(C)CC)CC(=O)N(C)[C@@H](CC3CCC3)C(=O)N[C@@H]([C@@H](C)CC)C(=O)N(C)CC(=O)N(C)[C@H]3C/C=C\CCN(C3=O)[C@@H](Cc3ccc(C(F)(F)F)cc3)C(=O)N(C)CC(=O)N[C@@H](CCc3ccc(C(F)(F)F)c(Cl)c3)C(=O)N2C1 [PP2826] | – | – | NRAS/KRAS (ratio of KD value with respect to GDP-bound NRAS wild-type protein to KD value with respect to KRAS) [1]: A (a compound having 10 or more and less than 20 is denoted as A); HRAS/KRAS (ratio of KD value with respect to GDP-bound HRAS wild-type protein to KD value with respect to KRAS) [3]: A (a compound having 10 or more and less than 20 is denoted as A)

The remaining lines, values behind:

Structure (SMILES) | Kd [2, 4] [nM] | NRAS/KRAS (ratio of KD value for NRAS to KD value for KRAS) [1] | HRAS/KRAS (ratio of KD value for HRAS to KD value for KRAS) [3] | further results
CCO[C@@H]1C[C@H]2C(=O)NC3(CCC3)C(=O)N(C)[C@@H](C3CCCC3)C(=O)N(C)[C@H](C(=O)N(C)C)CC(=O)N(C)[C@@H](Cc3cccnc3)C(=O)N[C@@H]([C@@H](C)CC)C(=O)N(C)CC(=O)N(C)[C@H]3CCCCN(C3=O)[C@@H](Cc3ccc(C(F)(F)F)cc3)C(=O)N(C)CC(=O)N[C@@H](CCc3cc(F)c(C(F)(F)F)c(F)c3)C(=O)N2C1 [PP0703] | 0.013 | – | – | NRAS/KRAS (ratio of KD value with respect to NRAS to KD value with respect to KRAS) [1]: C (A compound having a KD ratio of 0.1 or more and less than 3 is denoted as C); HRAS/KRAS (ratio of KD value with respect to HRAS to KD value with respect to KRAS) [3]: B (a compound having 3 or more and less than 10 is denoted as B)
CC[C@H](C)[C@@H]1NC(=O)[C@H](CC(C)C)N(C)C(=O)C[C@@H](C(=O)N2CCOCC2)N(C)C(=O)[C@H](C2CCCC2)N(C)C(=O)C2(CCCC2)NC(=O)[C@@H]2CCCN2C(=O)[C@H](CCc2cc(F)c(C(F)(F)F)c(F)c2)NC(=O)CN(C)C(=O)[C@H](Cc2ccc(C(F)(F)F)cc2)N2CCCC[C@@H](C2=O)N(C)C(=O)[C@H](C)N(C)C1=O [PP0544] | 18 | – | – | NRAS/KRAS (ratio of KD value with respect to NRAS to KD value with respect to KRAS) [1]: B (a compound having 3 or more and less than 10 is denoted as B); HRAS/KRAS (ratio of KD value with respect to HRAS to KD value with respect to KRAS) [3]: B (a compound having 3 or more and less than 10 is denoted as B)
CC[C@H](C)[C@@H]1NC(=O)[C@H](CC2CC2)N(C)C(=O)C[C@@H](C(=O)N(C)C)N(C)C(=O)[C@H](C2CCCC2)N(C)C(=O)C2(CCC2)NC(=O)[C@@H]2CC(F)(F)CN2C(=O)[C@H](CCc2cc(F)c(C(F)(F)F)c(F)c2)NC(=O)CN(C)C(=O)[C@H](Cc2ccc(C(F)(F)F)cc2)N2CC/C=C\C[C@@H](C2=O)N(C)C(=O)CN(C)C1=O [PP1500, (2S,8S,14S,20S,23S,27S,30S,36S,38Z)-20-cyclopentyl-27-(cyclopropylmethyl)-8-[2-[3,5-difluoro-4-(trifluoromethyl)phenyl]ethyl]-12,12-difluoro-N,N,4,19,22,26,32,35-octamethyl-30-[(1S)-1-methylpropyl]-3,6,9,15,18,21,25,28,31,34,42-undecaoxo-2-[[4-(trifluoromethyl)phenyl]methyl]spiro[1,4,7,10,16,19,22,26,29,32,35-undecazatricyclo[34.5.1.0^10,14]dotetracont-38-ene-17,1′-cyclobutane]-23-carboxamide] | – | – | – | NRAS/KRAS (ratio of KD value for NRAS to KD value for KRAS) ([1]; KD ratio class): A (a compound having 10 or more and less than 20 is denoted as A); Kd ([2]; SPR, Single Cycle Kinetics, 1:1 binding model): 0.039 nM; HRAS/KRAS (ratio of KD value for HRAS to KD value for KRAS) ([3]; KD ratio class): A (a compound having 10 or more and less than 20 is denoted as A)
C#CC[C@H]1C(=O)N[C@@H]([C@@H](C)CC)C(=O)N(C)CC(=O)N(C)[C@H]2C/C=C\CCN(C2=O)[C@@H](Cc2ccc(C(F)(F)F)cc2)C(=O)N(C)CC(=O)N[C@@H](CCc2cc(F)c(C(F)(F)F)c(F)c2)C(=O)N2C[C@H](OCC)C[C@H]2C(=O)NC2(CCC2)C(=O)N(C)[C@@H](C2CCCC2)C(=O)N(C)[C@H](C(=O)N(C)C)CC(=O)N1C [PP1115, (2S,8S,12R,14S,20S,23S,27S,30S,36S,38Z)-20-cyclopentyl-8-[2-[3,5-difluoro-4-(trifluoromethyl)phenyl]ethyl]-12-ethoxy-N,N,4,19,22,26,32,35-octamethyl-30-[(1S)-1-methylpropyl]-3,6,9,15,18,21,25,28,31,34,42-undecaoxo-27-prop-2-ynyl-2-[[4-(trifluoromethyl)phenyl]methyl]spiro[1,4,7,10,16,19,22,26,29,32,35-undecazatricyclo[34.5.1.0^10,14]dotetracont-38-ene-17,1′-cyclobutane]-23-carboxamide] | – | A (a compound having 10 or more and less than 20 is denoted as A) | A (a compound having 10 or more and less than 20 is denoted as A) | Kd ([2]; SPR, Single Cycle Kinetics): 0.054 nM
CCC(CC)[C@H]1C(=O)N(C)[C@H](C(=O)N(C)C)CC(=O)N(C)[C@@H](COC)C(=O)N[C@@H]([C@@H](C)CC)C(=O)N(C)CC(=O)N(C)[C@H]2C/C=C\CCN(C2=O)[C@@H](Cc2ccc(C(F)(F)F)cc2)C(=O)N(C)CC(=O)N[C@@H](CCc2cc(F)c(C(F)(F)F)c(F)c2)C(=O)N2CC[C@H]2C(=O)NC2(CC(C)(C)C2)C(=O)N1C [PP2918] | 1.8 | – | – | NRAS/KRAS (ratio of KD value with respect to GDP-bound NRAS wild-type protein to KD value with respect to KRAS) [1]: AA (a compound having 20 or more is denoted as AA); HRAS/KRAS (ratio of KD value with respect to GDP-bound HRAS wild-type protein to KD value with respect to KRAS) [3]: A (a compound having 10 or more and less than 20 is denoted as A)
CCCN1C(=O)CN(C)C(=O)[C@@H]2CCN2C(=O)[C@H](C2CC(F)(F)C2)NC(=O)[C@H](CC(C)C)N(C)C(=O)C[C@@H](C(=O)N2CCOCC2)N(C)C(=O)[C@H](C2CCCC2)N(C)C(=O)C2(CCCC2)NC(=O)[C@@H]2CCCN2C(=O)[C@H](CCc2cc(F)c(C(F)(F)F)c(F)c2)NC(=O)CN(C)C(=O)[C@@H]1Cc1ccc(C(F)(F)F)cc1 [PP0786] ([NMeL][X13][Aze][Sar][NPrPhe(4-CF3)][Sar][hPhe(3,5-F2-4-CF3)]P[Ac5c][NMeGly(cPent)][NMeD]-Morpholide; lactam N-11) | 0.6 | – | – | NRAS/KRAS (ratio of KD value with respect to NRAS to KD value with respect to KRAS) [1]: B (a compound having 3 or more and less than 10 is denoted as B); HRAS/KRAS (ratio of KD value with respect to HRAS to KD value with respect to KRAS) [3]: B (a compound having 3 or more and less than 10 is denoted as B)
CCCN1C(=O)CN(C)C(=O)CN(C)C(=O)[C@H]([C@@H](C)CC)NC(=O)[C@H](CC(C)C)N(C)C(=O)C[C@@H](C(=O)N2CCOCC2)N(C)C(=O)[C@H](C2CCCC2)N(C)C(=O)C2(CCCC2)NC(=O)[C@@H]2CCN2C(=O)[C@H](CCc2ccc(C(F)(F)F)c(Cl)c2)NC(=O)CN(C)C(=O)[C@@H]1Cc1ccc(C(F)(F)F)cc1 [PP0260] ([NMeL]I[Sar][Sar][NPrPhe(4-CF3)][Sar][hPhe(3-Cl-4-CF3)][Aze][Ac5c][NMeGly(cPent)][NMeD]-Morpholide; lactam N-11) | 0.39 | B (a compound having 3 or more and less than 10 is denoted as B) | C (A compound having a KD ratio of 0.1 or more and less than 3 is denoted as C) | –
CCCN1C(=O)CN(C)C(=O)CN(CC)C(=O)[C@H]([C@@H](C)CC)NC(=O)[C@H](CC(C)C)N(C)C(=O)C[C@@H](C(=O)N2CCOCC2)NC(=O)[C@H](C2CCCC2)N(C)C(=O)C2(CCCC2)NC(=O)[C@@H]2CCCN2C(=O)[C@H](CCc2ccc(C(F)(F)F)c(Cl)c2)NC(=O)CN(C)C(=O)[C@@H]1Cc1ccc(C(F)(F)F)cc1 [PP0331] ([NMeL]I[NEtG][Sar][NPrPhe(4-CF3)][Sar][hPhe(3-Cl-4-CF3)]P[Ac5c][NMeGly(cPent)]D-Morpholide; lactam N-11) | 2.8 | B (a compound having 3 or more and less than 10 is denoted as B) | B (a compound having 3 or more and less than 10 is denoted as B) | –
